According to publication PMC12436592 (Nature Communications, 2025):
“And” between values parts separate entries of the source, which are not always exact repeats. Identical values can stand only once.

Experiments:
hP2X7R [1] = biological target: T1, hP2X7R (Homo sapiens, UniProt Q99572); assay: Ethidium bromide accumulation in hP2X7R-expressing HEK293 cells; format: cell-based; set-up: expressed in transfected cells; conditions: for mean % of maximum accumulation / MAX100 (% of maximum accumulation, replicates 1-3): BzATP 6 μM; for IC50: hP2X7R, ethidium bromide accumulation, mean ± SD, triplicate; for ΔΔGexp: relative to UB-ALT-P30, from experimental pIC50 values, T = 298 K; for MAX100 (% of maximum accumulation, replicates 1-3): single replicates
T1 sequence (Q99572 1-595): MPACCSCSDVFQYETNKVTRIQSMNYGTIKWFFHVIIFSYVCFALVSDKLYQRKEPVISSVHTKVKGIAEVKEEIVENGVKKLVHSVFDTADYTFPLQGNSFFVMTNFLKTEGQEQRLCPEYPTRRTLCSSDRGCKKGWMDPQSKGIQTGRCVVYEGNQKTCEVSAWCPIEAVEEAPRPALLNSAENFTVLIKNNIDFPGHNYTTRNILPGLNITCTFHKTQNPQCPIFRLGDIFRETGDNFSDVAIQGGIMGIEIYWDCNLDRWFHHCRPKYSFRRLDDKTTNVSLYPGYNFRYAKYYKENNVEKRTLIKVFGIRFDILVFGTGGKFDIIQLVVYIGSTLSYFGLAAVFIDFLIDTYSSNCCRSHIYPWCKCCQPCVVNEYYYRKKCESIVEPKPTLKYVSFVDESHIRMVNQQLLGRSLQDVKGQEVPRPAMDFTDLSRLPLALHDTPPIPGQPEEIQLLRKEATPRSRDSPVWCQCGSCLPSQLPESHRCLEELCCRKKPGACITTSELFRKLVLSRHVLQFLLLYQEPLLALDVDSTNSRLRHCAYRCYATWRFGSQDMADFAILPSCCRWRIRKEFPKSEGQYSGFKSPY
Procedure: Human P2X7R-expressing HEK293 cells were cultured in a humidified atmosphere of 5% CO2 at 37 °C in Dulbecco’s Modification of Eagle’s Medium (DMEM; Corning) supplemented with 10% (v/v) fetal bovine serum (Corning) and 1% (v/v) antibiotic–antimycotic (Gibco)[75]. To perform the assay, the DMEM was removed, and the HEK293 cells were washed with 3 mL of 1X DPBS (Dulbecco’s Phosphate-Buffered Saline; Corning). After the removal of DPBS solution, the cells were detached from the dish with 1 mL of trypsin/EDTA (Gibco), and the cells were collected by centrifugation. The cells (density of 2.25 × 10^7) were re-suspended in 4-(2-hydroxyethyl)-1-piperazineethanesulfonic acid (HEPES)-buffered salt solution consisting of 140 mM potassium chloride, 1 mM ethylene diamine tetraacetic acid (EDTA), 5 mM glucose, 20 mM HEPES, and 0.1 mM ethidium bromide (pH 7.4). The vehicles or appropriate range of concentrations of compounds (10 μL, pre-diluted in 10% (v/v) DMSO in DW from 10 mM stock) were added to each well of 96-well black plate (Corning), and 80 μL of the cell suspension was subsequently added to each well. BzATP (10 μL, pre-diluted in DW from 10 mM stock) was then added, and the final assay volume was maintained at 100 μL. After the incubation in 5% CO2 at 37 °C for 2 h, the ethidium dye uptake was detected by measuring the fluorescence (excitation wavelength of 530 nm and emission wavelength of 590 nm) of each well using a CHAMELEON™ Multi-Technology Plate Reader. The antagonistic activities of compounds are expressed as the percentages relative to the maximum accumulation of ethidium bromide observed in the control group with the stimulation of the hP2X7R by an agonist, BzATP. The IC50 values of compounds as antagonists were calculated using nonlinear regression analysis using OriginPro 9.1 software.

hP2X7R [2] = biological target: T1, hP2X7R; assay: TEVC determination of antagonist binding kinetics in Xenopus oocytes; format: cell-based; set-up: expressed in transfected cells; host or cells: Xenopus laevis oocytes injected with capped cRNA (modified pUC19 vector, T7); conditions: single replicates
Procedure: Xenopus laevis frogs were from Nasco International (Fort Atkinson, WI) and kept at the Core Facility Animal Models (CAM) of the Biomedical Center (BMC) of LMU Munich, Germany (Az:4.3.2–5682/LMU/BMC/CAM) in accordance with the EU Animal Welfare Act. Ovaries were surgically extracted (ROB_54-011-AZ 2532.Vet_02-23-166), treated with collagenase (Nordmark, Uetersen, Germany 1.0–1.5 mg/mL, ≥2 at RT) and defolliculated (15-min treatment in Ca^2+-free oocyte Ringer (90 mM NaCl, 1 mM KCl, 2 mM MgCl2, 5 mM HEPES), respectively. 50 nL of cRNA (0.5 µg/µL) were injected using a Nanoject II injector (Science Products, Drummond) and oocytes were kept in ND96 (96 mM NaCl, 2 mM KCl, 1 mM MgCl2, 1 mM CaCl2, 5 mM HEPES, pH 7.4–7.5). The plasmid containing the hP2X7R was linearized with NotI-HF (NEB) and purified with the MinElute Reaction Cleanup Kit (Qiagen, Hilden, Germany). Capped cRNA was synthesized using the mMESSAGE mMACHINE™ T7 Transcription Kit (ThermoFisher Scientific, Schwerte, Germany) and dissolved in nuclease-free water (500 ng/µL). Injected oocytes were allowed to express for at least 36 hours.
Two-electrode voltage clamp recordings were performed at room temperature and a holding potential of −70 mV using a Turbo Tec-05X Amplifier (npi electronic, Tamm, Germany), a magnetic valve system, and CellWorks E 5.5.1 software. Currents were filtered at 1 kHz and digitized at 200 Hz. Electrode resistances were below 1.2 MΩ. […] Recordings were performed in ND96.
After obtaining reproducible agonist-evoked responses, solutions were switched to antagonist-containing recording solutions with and without ATP to determine association rates. Responses following antagonist application were normalized to the preceding, stabilized agonist responses. Dissociation was determined in 1- or 2 min intervals when currents were reduced to <10%. Association curves were fit to the data by the equation % Response = (100-Plateau)*exp(-kobs*Time) + Plateau, where Plateau indicates the response at equilibrium and kobs the experimentally determined on-rate. All data were analyzed using Prism software (GraphPad Software, Inc., Version 8.3.0, San Diego, CA) and are presented as means ± SD from at least three oocytes. […] The final concentration of DMSO in the recording solution was ≤1%.
Supplementary Fig. 10: Kinetics of ligands binding to the hP2X7R measured by TEVC. (A) […]
All data represented as mean ± S.D. with n=3, 7, 7, and 7 f or the experiments performed at 3 nM, 10 nM, 30 nM, and 100 nM […]
(B) Representative current traces for t he activation
(C) On- and off-r at e constants and Ki
Observed on- r at es kobs were determined by fitting the data (Fig. 4H, Supplementary Fig. 10A) to the function: % response = (100- Plateau)*exp(-kobs*time)+Plateau and plotted against the antagonist concentrations to obtain koff according to k obs=kon*F+koff. Assuming a (simplified) 1:1 binding model, of f-r at e constant koff and Ki values were estimated using the previous formulas as well as Ki=koff/kon. […]
determined by Ca2+ imaging (18 nM, Fig. 3B ) and the binding equilibrium reached at each […]
values of UB-MBX-46 c annot reflect an accurate value due to the nearly negligible dissociation on the timescale of the experiment. If k off was estimated based on the IC50 value (IC50 = koff/kon panel D), a more accurate koff value can be obtained. Numbers in square brackets are 95% Confidence Intervals. *values obtained from an extrapolated dose inhibition curve from D . (D) The plateau values, representing the binding equilibrium, were used to generate dose inhibition

[3] = antagonist concentration 3.2 (unit not given)
[4] = antagonist concentration 16 (unit not given)
[5] = antagonist concentration 80 (unit not given)
[6] = antagonist concentration 400 (unit not given)
[7] = antagonist concentration 2000 (unit not given)
[8] = antagonist concentration 10000 (unit not given)
[9] = antagonist concentration 100 (unit not given)
[10] = antagonist concentration 1000 (unit not given)

Row | mean % of maximum accumulation (hP2X7R [1]; [3]) [%] | mean % of maximum accumulation (hP2X7R [1]; [4]) [%] | mean % of maximum accumulation (hP2X7R [1]; [5]) [%] | mean % of maximum accumulation (hP2X7R [1]; [6]) [%] | mean % of maximum accumulation (hP2X7R [1]; [7]) [%] | mean % of maximum accumulation (hP2X7R [1]; [8]) [%] | IC50 (hP2X7R [1]) [nM] | MAX100 (% of maximum accumulation, replicates 1-3) (hP2X7R [1]; [3]) | MAX100 (% of maximum accumulation, replicates 1-3) (hP2X7R [1]; [4]) | MAX100 (% of maximum accumulation, replicates 1-3) (hP2X7R [1]; [5]) | MAX100 (% of maximum accumulation, replicates 1-3) (hP2X7R [1]; [6]) | MAX100 (% of maximum accumulation, replicates 1-3) (hP2X7R [1]; [7]) | MAX100 (% of maximum accumulation, replicates 1-3) (hP2X7R [1]; [8]) | Compound | ΔΔGexp (hP2X7R [1]) [kcal/mol] | further results
1 | 75.2635 | 81.0675 | 68.3254 | 62.0321 | 5.603 | -3.752 | 477 ± 170 | 66.4908 and 84.0361 | 77.5726 and 94.2771 and 71.3528 | 56.9921 and 86.4458 and 61.5385 | 60.1583 and 61.747 and 64.191 | 0.7916 and 7.53 and 8.488 | -6.86 and -5.723 and 1.326 | CC12CC3CC(C)(C1)CC(C(=O)NNc1ccccc1Cl)(C3)C2 [UB-ALT-P36] | 1.43 ± 1.93 | 
2 |  |  |  |  |  | 5.192 | > 1000 |  |  |  |  |  | 17.7966 and 0.7519 and -2.973 | CC12CC3(C)CC(C)(C1)CC(C(=O)NNc1ccccc1Cl)(C2)C3 [UB-ALT-P37] | >1.88 | mean % of maximum accumulation (hP2X7R [1]; [9]): 69.1292%; mean % of maximum accumulation (hP2X7R [1]; [10]): 66.8307%; MAX100 (% of maximum accumulation, replicates 1-3) (hP2X7R [1]; [9]): 71.3983 and 82.2055 and 53.7838; MAX100 (% of maximum accumulation, replicates 1-3) (hP2X7R [1]; [10]): 82.6271 and 51.3784 and 66.4865
3 | 92.6488 | 90.4406 | 85.6943 | 54.1625 | 8.486 | 7.125 | 430 ± 64 | 94.8207 and 85.2995 and 97.8261 | 88.8446 and 87.4773 and 95 | 92.8287 and 88.3848 and 75.8696 | 70.5179 and 47.1869 and 44.7826 | 13.1474 and 15.7895 and -3.478 | 12.9482 and 12.3412 and -3.913 | O=C(NNc1ccccc1Cl)C12C3C4C5C3C1C5C42 (centres unmarked) [UB-ALT-P38] | 1.36 ± 1.50 | 
4 |  |  |  |  |  |  |  |  |  |  |  |  |  | O=C(NNc1ccccc1Cl)C12CC3CC(CC(C3)C1)C2 [UB-MALT-P30] |  | on-rate to hP2X7R, Response [%] (hP2X7R [2]; 3 nM, time 2 min): 96.4% and 100% and 92.9%; on-rate to hP2X7R, Response [%] (hP2X7R [2]; 3 nM, time 4 min): 96.4% and 97.5% and 92.9%; on-rate to hP2X7R, Response [%] (hP2X7R [2]; 3 nM, time 6 min): 96.4% and 97.5% and 92.9%; on-rate to hP2X7R, Response [%] (hP2X7R [2]; 10 nM, time 2 min): 93.8% and 78.8% and 87.9% and 77.9% and 84.1% and 80.6% and 76.1%; on-rate to hP2X7R, Response [%] (hP2X7R [2]; 10 nM, time 4 min): 83.3% and 71.2% and 77.8% and 75.3% and 77.2% and 75% and 67.4%; on-rate to hP2X7R, Response [%] (hP2X7R [2]; 10 nM, time 6 min): 77.1% and 65.4% and 72.7% (2×) and 74% and 66.7% and 65.2%; on-rate to hP2X7R, Response [%] (hP2X7R [2]; 10 nM, time 8 min): 58.3% and 61.5% and 69.7% and 72.7% (2×) and 66.7% and 63%; on-rate to hP2X7R, Response [%] (hP2X7R [2]; 10 nM, time 10 min): 45.8% and 57.7% and 67.7% and 72.7% (2×) and 66.7% and 65.2%; on-rate to hP2X7R, Response [%] (hP2X7R [2]; 10 nM, time 12 min): 39.6% and 55.8% and 65.7% and 72.7% (2×) and 66.7% and 65.2%; on-rate to hP2X7R, Response [%] (hP2X7R [2]; 30 nM, time 2 min): 54.3% and 59.3% and 51.2% and 37.5% and 42.9% and 45.7% and 46.9%; on-rate to hP2X7R, Response [%] (hP2X7R [2]; 30 nM, time 4 min): 45.7% and 44.4% and 19.5% and 33.3% (2×) and 34.3%; on-rate to hP2X7R, Response [%] (hP2X7R [2]; 30 nM, time 6 min): 42.4% and 37% and 17.1% and 20.8% and 28.6% and 25.7% and 28.3%; on-rate to hP2X7R, Response [%] (hP2X7R [2]; 30 nM, time 8 min): 40.2% and 33.3% and 14.6% and 20.8% and 23.8% and 22.9% and 22.4%; on-rate to hP2X7R, Response [%] (hP2X7R [2]; 30 nM, time 10 min): 39.1% and 33.3% and 9.8% and 29.2% and 23.8% and 22.9% and 22.4%; on-rate to hP2X7R, Response [%] (hP2X7R [2]; 100 nM, time 2 min): 20% and 4.2% and 3.2% and 8.2% and 20.5% and 17.6% and 21.1%; on-rate to hP2X7R, Response [%] (hP2X7R [2]; 100 nM, time 4 min): 6.7%; on-rate to hP2X7R, Response [%] (hP2X7R [2]; 100 nM, time 6 min): 6.7% and 1.4% and 0% and 2% and 10.8% and 10.6% and 10.5%
